Reference: patent US12103983B2, “Compound and angiogenic agent comprising same” (HiPep Laboratories, priority 2018, dated 2024)
Bridge positions count the residues as written; N and C are the ends. Square brackets hold non-standard residues; d marks the D form. Peptide text beside a SMILES is read from it. AEEA = NCCOCCOCC(=O)O

These molecules were tested on endogenous cellular enzyme (assay: Stability test against endogenous cellular enzyme (HUVEC cell lysate)). Details: 37° C., after 6 hours of the assay.
Type: in vitro ADME, human
Procedure: In order to test retention of the effect, and usefulness as a drug, each peptide was subjected to a stability test against endogenous cellular enzyme.
Human vascular endothelial cells (HUVECs (Human Umbilical Vein Endothelial Cells, Promocell GmbH.)) were used. Cryopreserved HUVECs were cultured for 2 days in Endothelial Cell Growth Medium (Promocell GmbH.). The cells were detached and collected by a conventional method using trypsin-EDTA, and washed with H2O, followed by addition of Lysis Buffer for Enzyme extraction (5 mL of TBS pH 7.5, 5 mL of Triton X100 (trade name), 40 mL of H2O with cOmplete mini, manufactured by Roche) thereto. The resulting mixture was left to stand on ice for 30 minutes to lyse the cells. The resulting cell lysate was centrifuged at 13,000 rpm at 4° C. for 3 min, and the supernatant was collected. The protein concentration was measured at A280 (Nano drop, Thermofischer scientific), and then adjusted to 2 mg/mL to prepare a protein solution for an assay.
In each of PCR tubes, 50 μL of each of four kinds of AGP solutions (2 mg/mL)+20 μL of the cell lysate (2 mg/mL)+30 μL of H2O were mixed together, and the resulting mixtures were incubated at 37° C. in an incubator for 0, 1, 3, or 6 hours. Thereafter, each mixture was heated in a hot water bath at 90° C. for 5 minutes to inactivate enzyme, and then subjected to LC-MS analysis. The remaining peptide was quantified based on the area value of the peak detected with UV 210 nm in LC.

Row | Compound | remaining peptide / degradation (in words)
1 | CC(C)CC1NC(=O)CNC(=O)C(Cc2ccccc2)NC(=O)C(C(C)C)NC(=O)C(C(C)C)NC(=O)C(CO)NC(=O)COCCOCCNC(=O)C(N)CSSCC(C(N)=O)NC(=O)CNC(=O)C(CCCNC(=N)N)NC1=O (stereo not drawn) [cAGP3, Cyclic(Cys-O2Oc-SVVFGLR-G-Cys)-NH2] (H-C[AEEA]SVVFGLRGC-NH2; disulfide 1-11; configuration not given here) | remained almost without degradation
2 | CC(C)CC1NC(=O)CNC(=O)C(Cc2ccccc2)NC(=O)C(C(C)C)NC(=O)C(C(C)C)NC(=O)C(CO)NC(=O)COCCOCCNC(=O)C(N)CSSCC(C(N)=O)NC(=O)CNC(=O)C(CCCNC(=N)N)NC1=O (stereo not drawn) [cAGP2, Cyclic(DCys-O2Oc-SVVFGLR-G-DCys)-NH2] (H-C[AEEA]SVVFGLRGC-NH2; disulfide 1-11; configuration not given here) | remained almost without degradation
3 | CC(C)CC(NC(=O)CNC(=O)C(Cc1ccccc1)NC(=O)C(NC(=O)C(NC(=O)C(CO)NC(=O)COCCOCCN)C(C)C)C(C)C)C(=O)NC(CCCNC(=N)N)C(N)=O (stereo not drawn) [AGP-O2Oc, O2Oc-SVVFGLR-NH2] (H-[AEEA]SVVFGLR-NH2; configuration not given here) | same level of stability
